Measured values taken from patent publication US5026836A, “6-sulfenamide, 6-sulfinamide and 6-sulfonamide purines, purine nucleosides, purine nucleotides, pharmaceutical compositions, and processes of making” (priority 1988, dated 1991).
“Also recorded” adds a separate entry of the source.

Legend:
[1] = test system: L1210 cells; experiment: Bioassay of viable L1210 cells in brain after intracranial inoculation and ip drug; format: in vivo, mouse; conditions: for crossing of blood brain barrier / CNS penetration (words): mouse, in vivo
Excerpt: BDF1 mice were inoculated intracranially on day 0 with 1×10^5 L1210 cells. […] 24 hr after drug delivery the brains were collected, homogenized, and injected ip into untreated mice. Each mouse received the equivalent of half a brain. Thereafter, life span was monitored and, using inoculum-response data as a base of comparison, estimates were made of the numbers of viable cells in treated and control brains.

[2] = test system: L1210/MTX cells; experiment: Methotrexate resistant L1210 cells surviving treatment; format: in vivo, mouse
Procedure: In Example I Compound 19 was tested against Methotrexate resistant L1210 cells.

[3] = test system: L1210/5FU cells; experiment: 5-Fluorouracil resistant L1210 cells surviving treatment; format: in vivo, mouse
Procedure: In Examples G through K Compound 19 was tested against L1210 cell lines which had developed resistance to other known cancer chemotherapeutic agents.
In Example J, the results of which are shown in Table 10 below, Compound 19 was tested against 5-Fluorouracil resistant cells.

[4] = Toxicity / maximum tolerated dosage in mice; format: in vivo
Procedure: In Example N other compounds of the invention were tested against L1210 cells. […] Activity in Table 14-a is tabulated as both increases in life span and as cells surviving treatment and that in table 14-b as T/C.

[5] = test system: reticulum cell sarcoma M5076; experiment: Reticulum cell sarcoma M5076 tumor weight in C57B1/6 mice; format: in vivo, mouse; conditions: qd days 1,3,5,7,9,11; for Tumor wt, staging day (mean ± 1SD): before treatment (day 15 post inoculation); for Tumor wt, evaluation day (mean ± 1SD): day 12 of treatment
Procedure: (§1) In this example Compound 19 was tested against reticulum cell sarcoma M5076. For this and certain other tests below, test results are shown as δT/δC. Utilizing this protocol the difference in tumor weight before treatment and after treatment of the treated animals compared to the control animals is determined.

[6] = test system: human mammary carcinoma MX-1; experiment: Human mammary carcinoma MX-1 tumor weight in nu/nu mice; format: in vivo; conditions: qd days 1,3,5,7,9,11; for Tumor wt, staging day (mean ± 1SD): before treatment (day 17 post implant); for Tumor wt, evaluation day (mean ± 1SD): day 15 of treatment; for δT/δC: ≤20% moderate activity
Procedure: as §1
In Example P Compound 19 was tested against human mammary carcinoma MX-1.

[7] = test system: Colon 26 Adenocarcinoma; experiment: Survival of CDF1 mice bearing Colon 26 Adenocarcinoma; format: in vivo, mouse; conditions: for T/C (%): ≥150% significant
Procedure: In Example Q Compound 19 was tested against Colon 26 Adenocarcinoma.

[8] = test system: Human Colon Adenocarcinoma CX-1; experiment: Human Colon Adenocarcinoma CX-1 tumor weight in nu/nu mice; format: in vivo; conditions: for Tumor wt, staging day (mean ± 1SD): before treatment (day 33 post implant); for δT/δC: ≤20% active
Procedure: as §1
Compound 19 was further tested against Human Colon Adenocarcinoma CX-1. Activity against this tumor system is indicated at a δT/δC value of less than 20.

[9] = test system: Murine Glioma 261; experiment: Murine Glioma 261 tumor weight in C57B1/6 mice; format: in vivo, mouse; conditions: qd days 1-9; for Attained tumor wt (Mean ± 1SD): day 10; for T/C (%): active at or below 42%
Procedure: Compound 19 was also tested against Murine Glioma 261. In this test activity is indicated at levels of T/C below 42%. As is shown in Table 19, Compound 19 is active at various doses against this tumor system.

[10] = test system: human lung carcinoma LX-1; experiment: Activity against human lung carcinoma LX-1; conditions: in vivo
[11] = ip 62 mg/kg/inj, bid days 1,4,7
[12] = ip 104 mg/kg/inj, qd days 1,3,5,7
[13] = ip 104 mg/kg/inj, qd days 1,4,7
[14] = ip 173 mg/kg/inj, qd days 1,3,5,7
[15] = ip 173 mg/kg/inj, qd days 1,4,7
[16] = day 12, ip 138.4 mg/kg/inj, qd days 1,3,5,7,9
[17] = day 12, ip 138.4 mg/kg/inj, qd days 1,4,7,10,13,16
[18] = day 12, ip 173.0 mg/kg/inj, qd days 1,3,5,7
[19] = day 15, ip 138.4 mg/kg/inj, qd days 1,3,5,7,9,11
[20] = day 15, ip 138.4 mg/kg/inj, qd days 1,4,7,10,13
[21] = day 16, ip 173.0 mg/kg/inj, qd days 1,3,5,7,9
[22] = day 16, ip 173.0 mg/kg/inj, qd days 1,4,7,10
[23] = day 17, ip 173.0 mg/kg/inj, qd days 1,4,7,10,13

SMILES: Nc1nc([S+](N)[O-])c2ncn([C@@H]3O[C@H](CO)[C@@H](O)[C@H]3O)c2n1 (mixture of isomers) [Compound 19, 2-amino-9-β-D-ribofuranosyl-9H-purine-6-sulfinamide]
- Residual cells (% of control brain) ([1]; 24 hr after single ip dose (mg/kg): Methotrexate 12, Adriamycin 3, 6-Mercaptopurine 160, Cytosine Arabinoside 1200, Cyclophosphamide 140, Compound 19 173, Tiazofurin 1200, BCNU 20): 7.9%
- intracranial activity ([1]; intracranial L1210): significant reduction in the number of neoplastic cells in the brain; also recorded: active intracranially
- cell/half brain day 2, cell number ([1]; ip 173 mg/kg day 1): 261016 cell/half brain
- cell/half brain day 2, log10 ([1]; ip 173 mg/kg day 1): 5.42 log10
- change due to drug, cells ([1]; ip 173 mg/kg day 1, vs control): -92.08%
- change due to drug, log10 ([1]; ip 173 mg/kg day 1, vs control): -1.10 log10
- crossing of blood brain barrier / CNS penetration (words) [1]: effectively cross the blood brain barrier
- crossing of blood brain barrier / CNS penetration (words) ([1]; listed as 2-amino-9-β-D-ribofuranosyl-9H-purine-6-sulfinamide): able to penetrate the central nervous system; also recorded: penetrating the central nervous system
- activity against Methotrexate resistant cells ([2]; depending on dose level and regimen): activity can be seen against these Methotrexate resistant cells
- L1210/MTX cells surviving (% of day zero inoculum) ([2]; ip 104 mg/kg/day, qd days 1,4,7): 238.4%
- L1210/MTX cells surviving (% of day zero inoculum) ([2]; ip 173 mg/kg/day, qd day 1): 1.6%
- L1210/MTX cells surviving (% of day zero inoculum) ([2]; ip 173 mg/kg/day, qd days 1,4,7): 33.8%
- L1210/5FU cells surviving (% of day zero inoculum) ([3]; ip 62 mg/kg/day, qd days 1-7): 933%
- L1210/5FU cells surviving (% of day zero inoculum) ([3]; ip 104 mg/kg/day, qd days 1,3,5,7): 525%
- L1210/5FU cells surviving (% of day zero inoculum) ([3]; ip 104 mg/kg/day, qd days 1-7): 3%
- L1210/5FU cells surviving (% of day zero inoculum) ([3]; ip 173 mg/kg/day, qd days 1,3,5,7): 13%
- activity against 5-Fluorouracil resistant cells ([3]; large dosages): highly active against these resistant cells
- mice which died from drug toxicity ([4]; ip 104 mg/kg/inj, bid days 1,4,7, L1210-inoculated BDF1 mice): 1
- toxicity (T/C column) ([4]; ip 288 mg/kg, qd day 1, L1210-inoculated BDF1 mice): TOX
- mortality ([4]; mouse, in vivo, 104 mg/kg, bid days 1,4,7, L1210-inoculated mice, read-out: toxic deaths per number of animals in test group (converted)): 20%
- Tumor wt, staging day (mean ± 1SD) ([5]; ip 110.8 mg/kg/inj group): 396 ± 116 mg
- Tumor wt, staging day (mean ± 1SD) ([5]; ip 138.4 mg/kg/inj group): 355 ± 79 mg
- Tumor wt, staging day (mean ± 1SD) ([5]; ip 173.0 mg/kg/inj group): 354 ± 81 mg
- Tumor wt, evaluation day (mean ± 1SD) ([5]; ip 110.8 mg/kg/inj): 1121 ± 343 mg
- Tumor wt, evaluation day (mean ± 1SD) ([5]; ip 138.4 mg/kg/inj): 855 ± 325 mg
- Tumor wt, evaluation day (mean ± 1SD) ([5]; ip 173.0 mg/kg/inj): 409 ± 385 mg
- δT/δC ([5]; ip 110.8 mg/kg/inj): 65.8
- δT/δC ([5]; ip 138.4 mg/kg/inj): 45.4
- δT/δC ([5]; ip 173.0 mg/kg/inj): 5.0
- Tumor wt, staging day (mean ± 1SD) ([6]; ip 110.8 mg/kg/inj group): 321 ± 132 mg
- Tumor wt, staging day (mean ± 1SD) ([6]; ip 138.4 mg/kg/inj group): 330 ± 118 mg
- Tumor wt, staging day (mean ± 1SD) ([6]; ip 173.0 mg/kg/inj group): 323 ± 127 mg
- Tumor wt, evaluation day (mean ± 1SD) ([6]; ip 110.8 mg/kg/inj): 943 ± 297 mg
- Tumor wt, evaluation day (mean ± 1SD) ([6]; ip 138.4 mg/kg/inj): 884 ± 415 mg
- Tumor wt, evaluation day (mean ± 1SD) ([6]; ip 173.0 mg/kg/inj): 489 ± 104 mg
- δT/δC ([6]; ip 110.8 mg/kg/inj): 66.1%
- δT/δC ([6]; ip 138.4 mg/kg/inj): 58.9%
- δT/δC ([6]; ip 173.0 mg/kg/inj): 17.6%
- Median survival time [7, 11]: 45 days post inoculation
- T/C (%) [7, 11]: 196%
- Median survival time ([7]; ip 62 mg/kg/inj, qd days 1-7): 40 days post inoculation
- T/C (%) ([7]; ip 62 mg/kg/inj, qd days 1-7): 174%
- Median survival time ([7]; ip 104 mg/kg/inj, bid days 1,4,7, group included 6 toxic deaths): 17 days post inoculation
- Median survival time [7, 12]: 34 days post inoculation
- T/C (%) [7, 12]: 148%
- Median survival time [7, 13]: 31 days post inoculation
- T/C (%) [7, 13]: 135%
- Median survival time ([7]; ip 104 mg/kg/inj, qd days 1-7): 38 days post inoculation
- T/C (%) ([7]; ip 104 mg/kg/inj, qd days 1-7): 165%
- Median survival time [7, 14]: 42 days post inoculation
- T/C (%) [7, 14]: 183%
- Median survival time [7, 15]: 31 days post inoculation
- T/C (%) [7, 15]: 135%
- Tumor wt, staging day (mean ± 1SD) ([8]; ip 138.4 mg/kg/inj group, qd days 1,3,5,7,9): 226 mg
- Tumor wt, staging day (mean ± 1SD) ([8]; ip 138.4 mg/kg/inj group, qd days 1,3,5,7,9,11): 220 mg
- Tumor wt, staging day (mean ± 1SD) ([8]; ip 138.4 mg/kg/inj group, qd days 1,4,7,10,13): 225 mg
- Tumor wt, staging day (mean ± 1SD) ([8]; ip 138.4 mg/kg/inj group, qd days 1,4,7,10,13,16): 215 mg
- Tumor wt, staging day (mean ± 1SD) ([8]; ip 173.0 mg/kg/inj group, qd days 1,3,5,7): 222 mg
- Tumor wt, staging day (mean ± 1SD) ([8]; ip 173.0 mg/kg/inj group, qd days 1,3,5,7,9): 229 mg
- Tumor wt, staging day (mean ± 1SD) ([8]; ip 173.0 mg/kg/inj group, qd days 1,4,7,10): 226 mg
- Tumor wt, staging day (mean ± 1SD) ([8]; ip 173.0 mg/kg/inj group, qd days 1,4,7,10,13): 226 mg
- Tumor wt, evaluation day (mean ± 1SD) [8, 16]: 278 ± 114 mg
- δT/δC [8, 16]: 25.0%
- Tumor wt, evaluation day (mean ± 1SD) [8, 17]: 296 ± 186 mg
- δT/δC [8, 17]: 38.9%
- Tumor wt, evaluation day (mean ± 1SD) [8, 18]: 302 ± 144 mg
- δT/δC [8, 18]: 38.5%
- Tumor wt, evaluation day (mean ± 1SD) [8, 19]: 358 ± 125 mg
- δT/δC [8, 19]: 46.6%
- Tumor wt, evaluation day (mean ± 1SD) [8, 20]: 375 ± 155 mg
- δT/δC [8, 20]: 50.7%
- Tumor wt, evaluation day (mean ± 1SD) [8, 21]: 364 ± 254 mg
- δT/δC [8, 21]: 39.9%
- Tumor wt, evaluation day (mean ± 1SD) [8, 22]: 402 ± 187 mg
- δT/δC [8, 22]: 52.1%
- Tumor wt, evaluation day (mean ± 1SD) [8, 23]: 279 ± 121 mg
- δT/δC [8, 23]: 15.8%
- Attained tumor wt (Mean ± 1SD) ([9]; ip 22 mg/kg/inj): 80 ± 130 mg
- Attained tumor wt (Mean ± 1SD) ([9]; ip 37 mg/kg/inj): 119 ± 105 mg
- Attained tumor wt (Mean ± 1SD) ([9]; ip 62 mg/kg/inj): 137 ± 124 mg
- Attained tumor wt (Mean ± 1SD) ([9]; ip 104 mg/kg/inj): 5 ± 5 mg
- T/C (%) ([9]; ip 22 mg/kg/inj): 22.9%
- T/C (%) ([9]; ip 37 mg/kg/inj): 34.1%
- T/C (%) ([9]; ip 62 mg/kg/inj): 39.3%
- T/C (%) ([9]; ip 104 mg/kg/inj): 1.4%
- activity against human lung carcinoma LX-1 [10]: No activity
